Assay results published in patent US7189748B2, “Compounds and methods for treating insulin resistance and cardiomyopathy” (Forbes Medi-Tech (Research), Inc., priority 2004, dated 2007).

Legend:
Rat pancreatic islets = experiment: Protection of islets from fatty acid (palmitate) induced apoptosis, propidium iodide flow cytometry; type: cell-based; settings: 3 days; for % Apoptosis: Fatty Acid medium (1 millimolar sodium palmitate), Control medium 2.40, Fatty Acid medium 17.60
Method: Islet protection by an exemplary compound was evaluated in an assay according to Eitel, K, et al (2002), and results obtained in this assay are reported below in Table 4. Rat pancreatic islets were cultured with control medium (RPMI 1640 supplemented with 10% fetal bovine serum, antibiotics and made […]) or in medium supplemented with 1 millimolar sodium palmitate (Fatty Acid Medium) during a period of 3 days. The culture medium was changed after 2 days to an identical composition culture medium with fresh inhibitor in the appropriate wells. Cells were stained with propidium iodide (PI), washed and propidium staining of cells (as a measure of cellular DNA content) was assessed by flow cytometry. The percentage of cells having less than the normal amount of PI staining was considered to be apoptotic cells (Eitel, K, et al. (2002)).

SPT [1] = molecular target: T1, SPT (Homo sapiens, UniProt O15269+O15270); experiment: Serine palmitoyltransferase activity, Assay C ([3H]serine incorporation into lipids, cell homogenate); type: biochemical; settings: for inhibition of SPT (in words): Assay C, at the doses of Table 2
T1 construct: endogenous in cells
T1 sequence (O15269 1-473): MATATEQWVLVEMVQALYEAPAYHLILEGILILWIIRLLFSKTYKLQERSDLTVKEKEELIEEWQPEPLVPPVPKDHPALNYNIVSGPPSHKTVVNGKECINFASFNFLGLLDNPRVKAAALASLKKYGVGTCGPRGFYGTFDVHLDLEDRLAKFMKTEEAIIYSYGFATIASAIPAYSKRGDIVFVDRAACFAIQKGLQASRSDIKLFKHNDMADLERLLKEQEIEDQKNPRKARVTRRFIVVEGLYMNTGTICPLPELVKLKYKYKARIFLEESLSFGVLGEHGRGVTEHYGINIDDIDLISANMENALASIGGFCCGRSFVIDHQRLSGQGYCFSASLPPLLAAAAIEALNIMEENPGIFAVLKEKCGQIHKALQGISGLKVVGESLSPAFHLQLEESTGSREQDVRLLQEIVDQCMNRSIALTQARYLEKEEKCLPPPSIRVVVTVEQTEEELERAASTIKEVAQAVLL
T1 sequence (O15270 1-562): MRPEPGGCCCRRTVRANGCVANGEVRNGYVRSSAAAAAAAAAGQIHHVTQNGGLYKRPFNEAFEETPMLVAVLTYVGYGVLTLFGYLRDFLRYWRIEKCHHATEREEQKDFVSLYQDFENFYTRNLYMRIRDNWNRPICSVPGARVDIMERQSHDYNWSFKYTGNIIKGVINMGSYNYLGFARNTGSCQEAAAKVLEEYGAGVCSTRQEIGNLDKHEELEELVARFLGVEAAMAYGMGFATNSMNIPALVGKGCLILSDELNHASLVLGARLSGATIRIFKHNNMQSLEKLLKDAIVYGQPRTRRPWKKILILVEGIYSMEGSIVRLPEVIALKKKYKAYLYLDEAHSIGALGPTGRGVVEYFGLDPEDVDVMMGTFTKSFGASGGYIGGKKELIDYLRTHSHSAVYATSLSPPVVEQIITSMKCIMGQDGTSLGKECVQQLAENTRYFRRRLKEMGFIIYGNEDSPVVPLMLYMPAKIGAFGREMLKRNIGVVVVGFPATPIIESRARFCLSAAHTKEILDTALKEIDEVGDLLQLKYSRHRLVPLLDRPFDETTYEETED
T1 sequence (Q969W0 1-71 partner): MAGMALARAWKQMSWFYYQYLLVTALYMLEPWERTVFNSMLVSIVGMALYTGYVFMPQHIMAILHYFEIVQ
Method: An alternative assay for evaluating inhibition of SPT, the enzyme present in commonly cultured cells, is performed with CHO cells or a human cell line. Cells are washed three times with ice-cold phosphate-buffered saline (PBS). A total of 0.5 mL of lysis buffer [50 mM Hepes (pH 8.0) containing 5 mM ethylenediaminetetraacetic acid (EDTA) and 5 mM dithiothreitol (DTT)] is added to each dish. The cells are scraped using a rubber policeman, and are then transferred to a test tube on ice. The cell suspension is sonicated three times for 5 s at 1–2 min intervals on ice. Protein concentrations in cell homogenates are measured using a Bradford protein assay kit (Bio-Rad). To measure the SPT activity, 0.1 mL of cell homogenates are added to 0.1 mL of reaction buffer [20 mM Hepes (pH 8.0) containing 5 mM EDTA, 10 mM DTT, 50 μM pyridoxal-5′-phosphate, 0.4 mM palmitoyl CoA, 2 mM L-serine, 10 μCi of [^3H]serine, and test compound or standard inhibitor (myriocin). After incubation at 37° C. for 20 min with shaking, the reaction is terminated with 0.5 mL of 0.5 N NH4OH containing 10 mM L-serine. The lipid products are extracted using the solvent system: 3 mL of chloroform/methanol (1:2), 25 μg of sphingosine (1 mg/mL in ethanol) as a carrier, 2 mL of chloroform, and 3.8 mL of 0.5 N NH4OH. After vigorous mixing, the phases are separated by centrifugation at 2500 rpm for 5 min. The aqueous layer is removed by aspiration, and the lower chloroform layer is washed 3 times with 4.5 mL of water. The chloroform layer is transferred to a scintillation vial, and the solvent is evaporated under N2 gas. The radioactivity is measured with a LS6000TA liquid scintillation counter (Beckman). Nonspecific conversion of [^3H] serine to chloroform-soluble species is determined by performing the assay in the absence of palmitoyl CoA. The count of the background is about one-sixth of the count of 100% activity.
An alternative assay using a non-chlorinated solvent modification of the Blye and Dyer lipid extraction method reported in Smedes (Smedes, F., Analyst 124:1711–18 (1999)) was employed to evaluate exemplary compounds. In this approach, the cells were washed three times with ice-cold phosphate-buffered saline and 0.5 mL of lysis buffer was added to each dish. The cells were scraped using a rubber policeman and transfer to a test tube on ice. The cell suspension was sonicated three times for 5 s at 1–2 min intervals on ice. A 0.1 mL sample of cell homogenates were added to 0.1 mL of reaction buffer in a test tube containing the appropriate concentration of test substance and 10 μCi of [^3H] serine. The reaction mixture was incubated at 37° C. for 20 min with shaking, and the reaction was terminated with 0.5 mL of […] NH4OH stop solution containing 10 mM unlabeled L-serine. Total lipids are extracted by transferring the contents of the test tube into a 15 ml centrifuge tube containing: 4.5 mL of isopropanol/cyclohexane (4:5) containing 25 μg of sphingosine (1 mg/mL in ethanol and diluted into the isopropanol/cyclohexane mixture) as a carrier. The contents were mixed vigorously and 4 mL of 0.5 N NH4OH was added. The phases were separated by centrifugation at 2500 rpm for 5 min. An accurately measured portion of the organic layer (4.0 ml) was added to a scintillation vial with 1 ml of water. Ultima Gold F (5 ml) was added, the vial was vortexed and allowed to settle into separate layers. The amount of [^3H] serine radioactivity incorporated into lipids was quantified in a scintillation counter. Non-specific counts were determined by carrying out the assay with control samples containing no palmitoyl CoA.

SPT [2] = settings: literature statement; cited from earlier work
beta cell apoptosis = settings: diabetic Zucker fatty rat model; cited from earlier work
[3] = 1 nM, Table 2, No Inhibitor 4443/4483, no CoA blank 305
[4] = 10 nM, Table 2, No Inhibitor 4443/4483, no CoA blank 305

SMILES	% Apoptosis (Rat pancreatic islets) [%]	Counts (SPT [1]; [3])	Counts (SPT [1]; [4])	inhibition of SPT (in words) (SPT [1])	activity against SPT (in words) (SPT [2])	also measured
CCCCCCC(=O)CCCCCC/C=C/C[C@@H](O)[C@H](O)[C@@](N)(CO)C(=O)O [ISP, myriocin]	14.65	2509	535	potent but non-selective inhibition of SPT	–	Counts (SPT [1]; 10 nM, Table 3, Control 5816, No Palm CoA 611): 959
CCCCCCCCc1ccc(CCC(N)(CO)CO)cc1 [FTY720]	–	–	–	–	do not inhibit SPT	–
CCCCCCCOc1ccc(CCC(N)(CO)C(=O)O)cc1 (stereo not shown) [Compound 12]	2.33	4215	4118	moderate activity	–	protection of cells from the fatty acid treatment (in words) (Rat pancreatic islets; rat islets, fatty acid medium): fully protect cells; Counts (SPT [1]; 100 nM, Table 2, No Inhibitor 4443/4483, no CoA blank 305): 4258; Counts (SPT [1]; 1 μM, Table 2, No Inhibitor 4443/4483, no CoA blank 305): 4169; Counts (SPT [1]; 10 μM, Table 2, No Inhibitor 4443/4483, no CoA blank 305): 4608
CCCCCCCCc1ccc(CCC(N)(CO)C(=O)O)cc1 (stereo not shown) [Compound 2]	–	–	–	–	did not exhibit activity against SPT	–
N[C@@H]1CON=C1O [cycloserine]	–	–	–	–	–	partial beta cell protective effect (beta cell apoptosis): ~50 % activity
